US20240425490A1, “SULFAMIDE RIBONUCLEOTIDE REDUCTASE (RNR) INHIBITORS AND USES THEREOF” (Boundless Bio, Inc., priority 2021, published 2024)

Molecular target: T1, RNR (RNR1:RNR2 1:1) (Homo sapiens, UniProt P23921)
T1 sequence (P23921 1-792): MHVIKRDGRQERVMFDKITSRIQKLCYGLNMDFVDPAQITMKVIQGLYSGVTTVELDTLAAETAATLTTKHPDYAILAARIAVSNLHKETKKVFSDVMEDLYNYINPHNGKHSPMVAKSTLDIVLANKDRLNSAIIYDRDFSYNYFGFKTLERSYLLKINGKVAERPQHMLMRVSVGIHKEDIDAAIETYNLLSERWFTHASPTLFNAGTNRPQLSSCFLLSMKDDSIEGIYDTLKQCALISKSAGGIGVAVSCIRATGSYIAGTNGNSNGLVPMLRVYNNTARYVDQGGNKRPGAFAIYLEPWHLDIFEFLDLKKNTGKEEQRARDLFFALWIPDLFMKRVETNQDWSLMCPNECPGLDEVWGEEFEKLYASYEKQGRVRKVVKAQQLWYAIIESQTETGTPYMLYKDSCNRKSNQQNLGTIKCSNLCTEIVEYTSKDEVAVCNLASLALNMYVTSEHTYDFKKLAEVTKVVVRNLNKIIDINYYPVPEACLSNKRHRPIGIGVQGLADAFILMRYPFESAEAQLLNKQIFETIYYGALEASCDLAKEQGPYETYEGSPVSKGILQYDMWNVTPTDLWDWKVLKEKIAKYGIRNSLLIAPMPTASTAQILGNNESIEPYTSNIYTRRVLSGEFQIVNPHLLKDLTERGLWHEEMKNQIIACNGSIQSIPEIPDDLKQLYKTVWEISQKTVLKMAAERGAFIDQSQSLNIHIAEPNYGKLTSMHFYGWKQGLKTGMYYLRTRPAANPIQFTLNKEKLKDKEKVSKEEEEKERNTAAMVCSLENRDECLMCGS
Test: RNR enzyme activity, rapid-fire mass spectrometry (RFMS) assay
Format: biochemical
Conditions: RNR 50 nM, CDP 5 μM, ATP 1 mM, 37° C., 45 min, compounds screened up to 50 μM, read-out: RF/MS IC50
Procedure: A rapid-fire mass spectrometry (RFMS) assay was used to assess RNR enzyme activity using a 384 well plate and a robotic platform.
The plate layout included two validated reference compounds (Triapine (3-AP) and Hydroxyurea (HU)): • A dose response in duplicate; top concentration: 5 μM (3-AP) and 250 μM (HU), semi-log dilutions. • Spike wells in triplicate randomly spotted at four concentrations: • 250 μM, 100 μM, 30 μM and 2 μM for HU • 5 μM, 2 μM, 0.6 μM and 0.04 μM for 3-AP
First, the multidrop pipes were saturated for 30 minutes with enzymatic solution. Then 30 μL of Stop solution was distributed in column 24. Next, 15 μL of enzyme was distributed in column 1 to 24. Next, a pre-incubation step of 15 minutes at room temperature occurred, followed by distribution of 15 μL of substrate solution (column 1 to 24). Next, the plate was incubated for 45 minutes at 37° C. 30 μL of Stop solution was distributed to columns 1 to 23.
The final parameters for the enzyme reactions were: • Incubation: 37° C., 45 min • [CDP]: 5 μM; [ATP]: 1 mM; [NADPH]: No • [RNR] final: 50 nM with 1:1 (RNR1:RNR2) ratio • Final volume: 30 μL • Stop solution: 6% HCOOH containing 2 μM of 15

SMILES | IC50 [µM]
Cc1ccc(F)c([C@@H](C)[C@H](NS(=O)(=O)N2CCC(C(F)F)CC2)c2n[nH]c(=O)o2)c1C [Example 45, 4-(difluoromethyl)-N-((1S,2R)-2-(6-fluoro-2,3-dimethylphenyl)-1-(5-oxo-4,5-dihydro-1,3,4-oxadiazol-2-yl)propyl)piperidine-1-sulfonamide] | 1 to 10
Cc1ccc(F)c(C(C)[C@H](NS(=O)(=O)N2CCC(OC(F)(F)F)CC2)c2n[nH]c(=O)o2)c1C (stereo partly drawn) [Example 46, N-((1S)-2-(6-fluoro-2,3-dimethylphenyl)-1-(5-oxo-4,5-dihydro-1,3,4-oxadiazol-2-yl)propyl)-4-(trifluoromethoxy)piperidine-1-sulfonamide] | 1 to 10
C#CC1CCN(S(=O)(=O)N[C@H](c2n[nH]c(=O)o2)[C@@H](C)c2c(F)ccc(C)c2C)CC1 [Example 47, 4-ethynyl-N-((1S,2S)-2-(6-fluoro-2,3-dimethylphenyl)-1-(5-oxo-4,5-dihydro-1,3,4-oxadiazol-2-yl)propyl)piperidine-1-sulfonamide] | 10 to 100
C#CC1CCN(S(=O)(=O)N[C@H](c2n[nH]c(=O)o2)[C@H](C)c2c(F)ccc(C)c2C)CC1 [Example 48, 4-ethynyl-N-((1S,2R)-2-(6-fluoro-2,3-dimethylphenyl)-1-(5-oxo-4,5-dihydro-1,3,4-oxadiazol-2-yl)propyl)piperidine-1-sulfonamide] | 1 to 10
Cc1ccc(F)c(C(C)[C@H](NS(=O)(=O)N2CCC(C3CC3)CC2)c2n[nH]c(=O)o2)c1C (stereo partly drawn) [Example 49, 4-cyclopropyl-N-((1S)-2-(6-fluoro-2,3-dimethylphenyl)-1-(5-oxo-4,5-dihydro-1,3,4-oxadiazol-2-yl)propyl)piperidine-1-sulfonamide] | 1 to 10
Cc1ccc(F)c([C@@H](C)[C@H](NS(=O)(=O)N2CCC(N3CCCC3)CC2)c2n[nH]c(=O)o2)c1C [Example 50, N-((1S,2R)-2-(6-fluoro-2,3-dimethylphenyl)-1-(5-oxo-4,5-dihydro-1,3,4-oxadiazol-2-yl)propyl)-4-(pyrrolidin-1-yl)piperidine-1-sulfonamide] | 10 to 100
Cc1ccc(F)c([C@@H](C)[C@H](NS(=O)(=O)N2CCC(S(C)(=O)=O)CC2)c2n[nH]c(=O)o2)c1C [Example 51, N-((1S,2R)-2-(6-fluoro-2,3-dimethylphenyl)-1-(5-oxo-4,5-dihydro-1,3,4-oxadiazol-2-yl)propyl)-4-(methylsulfonyl)piperidine-1-sulfonamide] | 10 to 100
Cc1ccc(F)c([C@@H](C)[C@H](NS(=O)(=O)N2CCC(c3nncn3C)CC2)c2n[nH]c(=O)o2)c1C [Example 52, N-((1S,2R)-2-(6-fluoro-2,3-dimethylphenyl)-1-(5-oxo-4,5-dihydro-1,3,4-oxadiazol-2-yl)propyl)-4-(4-methyl-4H-1,2,4-triazol-3-yl)piperidine-1-sulfonamide] | 10 to 100
Cc1ccc(F)c([C@H](C)[C@H](NS(=O)(=O)N2CCC(c3nncn3C)CC2)c2n[nH]c(=O)o2)c1C [Example 53, N-((1S,2S)-2-(6-fluoro-2,3-dimethylphenyl)-1-(5-oxo-4,5-dihydro-1,3,4-oxadiazol-2-yl)propyl)-4-(4-methyl-4H-1,2,4-triazol-3-yl)piperidine-1-sulfonamide] | 10 to 100
Cc1ccc(F)c([C@H](C)[C@H](NS(=O)(=O)N2CCC(Oc3ccccc3)CC2)c2n[nH]c(=O)o2)c1C [Example 54, N-((1S,2S)-2-(6-fluoro-2,3-dimethylphenyl)-1-(5-oxo-4,5-dihydro-1,3,4-oxadiazol-2-yl)propyl)-4-phenoxypiperidine-1-sulfonamide] | 10 to 100
Cc1ccc(F)c([C@@H](C)[C@H](NS(=O)(=O)N2CCC(Oc3ccccc3)CC2)c2n[nH]c(=O)o2)c1C [Example 55, N-((1S,2R)-2-(6-fluoro-2,3-dimethylphenyl)-1-(5-oxo-4,5-dihydro-1,3,4-oxadiazol-2-yl)propyl)-4-phenoxypiperidine-1-sulfonamide] | 0.1 to 1
CNC(=O)C1CCN(S(=O)(=O)N[C@H](c2n[nH]c(=O)o2)[C@@H](C)c2c(F)ccc(C)c2C)CC1 [Example 56, 1-(N-((1S,2S)-2-(6-fluoro-2,3-dimethylphenyl)-1-(5-oxo-4,5-dihydro-1,3,4-oxadiazol-2-yl)-propyl)sulfamoyl)-N-methylpiperidine-4-carboxamide] | 10 to 100
CNC(=O)C1CCN(S(=O)(=O)N[C@H](c2n[nH]c(=O)o2)[C@H](C)c2c(F)ccc(C)c2C)CC1 [Example 57, 1-(N-((1S,2R)-2-(6-fluoro-2,3-dimethylphenyl)-1-(5-oxo-4,5-dihydro-1,3,4-oxadiazol-2-yl)propyl)sulfamoyl)-N-methylpiperidine-4-carboxamide] | 1 to 10
Cc1ccc(F)c([C@@H](C)[C@H](NS(=O)(=O)N2CCC3(CCNC3=O)CC2)c2n[nH]c(=O)o2)c1C [Example 59, N-((1S,2R)-2-(6-fluoro-2,3-dimethylphenyl)-1-(5-oxo-4,5-dihydro-1,3,4-oxadiazol-2-yl)propyl)-1-oxo-2,8-diazaspiro[4.5]decane-8-sulfonamide] | 10 to 100
Cc1ccc(F)c(C(C)[C@H](NS(=O)(=O)N2CCC(C3NC(=O)NC3=O)CC2)c2n[nH]c(=O)o2)c1C (stereo partly drawn) [Example 60, 4-(2,5-dioxoimidazolidin-4-yl)-N-((1S)-2-(6-fluoro-2,3-dimethylphenyl)-1-(5-oxo-4,5-dihydro-1,3,4-oxadiazol-2-yl)propyl)piperidine-1-sulfonamide] | 0.1 to 1
Cc1ccc(F)c([C@H](C)[C@H](NS(=O)(=O)N2CCC3(CCO3)CC2)c2n[nH]c(=O)o2)c1C [Example 61, N-((1S,2S)-2-(6-fluoro-2,3-dimethylphenyl)-1-(5-oxo-4,5-dihydro-1,3,4-oxadiazol-2-yl)propyl)-1-oxa-7-azaspiro[3.5]nonane-7-sulfonamide] | 10 to 100
Cc1ccc(F)c(C(C)[C@H](NS(=O)(=O)N2CCC(CN3CCCCC3)CC2)c2n[nH]c(=O)o2)c1C (stereo partly drawn) [Example 62, N-((1S)-2-(6-fluoro-2,3-dimethylphenyl)-1-(5-oxo-4,5-dihydro-1,3,4-oxadiazol-2-yl)propyl)-4-(piperidin-1-ylmethyl)piperidine-1-sulfonamide] | 10 to 100
CC(=O)N(C)C1CCN(S(=O)(=O)N[C@H](c2n[nH]c(=O)o2)C(C)c2c(F)ccc(C)c2C)CC1 (stereo partly drawn) [Example 63, N-(1-(N-((1S)-2-(6-fluoro-2,3-dimethylphenyl)-1-(5-oxo-4,5-dihydro-1,3,4-oxadiazol-2-yl)propyl)sulfamoyl)piperidin-4-yl)-N-methylacetamide] | 1 to 10
Cc1ccc(F)c(C(C)[C@H](NS(=O)(=O)N2CCC(C(=O)N(C)C)CC2)c2n[nH]c(=O)o2)c1C (stereo partly drawn) [Example 64, 1-(N-((1S)-2-(6-fluoro-2,3-dimethylphenyl)-1-(5-oxo-4,5-dihydro-1,3,4-oxadiazol-2-yl)propyl)sulfamoyl)-N,N-dimethylpiperidine-4-carboxamide] | 1 to 10
Cc1ccc(F)c(C(C)[C@H](NS(=O)(=O)N2CCC(CN3CCCC3=O)CC2)c2n[nH]c(=O)o2)c1C (stereo partly drawn) [Example 65, N-((1S)-2-(6-fluoro-2,3-dimethylphenyl)-1-(5-oxo-4,5-dihydro-1,3,4-oxadiazol-2-yl)propyl)-4-((2-oxopyrrolidin-1-yl)methyl)piperidine-1-sulfonamide] | 0.1 to 1
CNC(=O)CC1CCN(S(=O)(=O)N[C@H](c2n[nH]c(=O)o2)C(C)c2c(F)ccc(C)c2C)CC1 (stereo partly drawn) [Example 66, 2-(1-(N-((1S)-2-(6-fluoro-2,3-dimethylphenyl)-1-(5-oxo-4,5-dihydro-1,3,4-oxadiazol-2-yl)propyl)sulfamoyl)piperidin-4-yl)-N-methylacetamide] | 10 to 100
Cc1ccc(F)c(C(C)[C@H](NS(=O)(=O)N2CCC3(CC2)COC(=O)O3)c2n[nH]c(=O)o2)c1C (stereo partly drawn) [Example 67, N-((1S)-2-(6-fluoro-2,3-dimethylphenyl)-1-(5-oxo-4,5-dihydro-1,3,4-oxadiazol-2-yl)propyl)-2-oxo-1,3-dioxa-8-azaspiro[4.5]decane-8-sulfonamide] | 10 to 100
